Reference: the CheMixHub ionic liquid set

Experiment: xn = mol fraction of the nth substance listed

NC(N)=NCCC[C@H](N)C(=O)O + CCCC[N+](C)(CCCC)CCCC.[Cl-] + O
viscosity [mPa·s], 101.3 kPa
Conditions | 293.15 K | 298.15 K | 303.15 K | 308.15 K | 313.15 K
x1 = 0.0003636, x2 = 0.00072 | 1.06 | 0.94 | 0.85 | 0.76 | 0.69
x1 = 0.0003667, x2 = 0.001439 | 1.1 | 0.98 | 0.88 | 0.79 | 0.72
x1 = 0.0007271, x2 = 0.0007198 | 1.07 | 0.95 | 0.86 | 0.78 | 0.7
x1 = 0.0007335, x2 = 0.001438 | 1.11 | 0.99 | 0.89 | 0.8 | 0.73
x1 = 0.001088, x2 = 0.0007195 | 1.08 | 0.97 | 0.87 | 0.79 | 0.71
x1 = 0.001096, x2 = 0.001438 | 1.12 | 1 | 0.9 | 0.82 | 0.75
x1 = 0.001452, x2 = 0.0007192 | 1.1 | 0.98 | 0.88 | 0.8 | 0.72
x1 = 0.001464, x2 = 0.001437 | 1.13 | 1.01 | 0.91 | 0.83 | 0.76
x1 = 0.001809, x2 = 0.001437 | 1.15 | 1.02 | 0.92 | 0.84 | 0.77
x1 = 0.001816, x2 = 0.000719 | 1.11 | 0.99 | 0.89 | 0.81 | 0.73
x1 = 0.002177, x2 = 0.0007187 | 1.12 | 1 | 0.9 | 0.82 | 0.75
x1 = 0.002195, x2 = 0.001436 | 1.16 | 1.04 | 0.94 | 0.85 | 0.78
x1 = 0.002535, x2 = 0.0007185 | 1.13 | 1.02 | 0.92 | 0.84 | 0.76
x1 = 0.00256, x2 = 0.001436 | 1.17 | 1.05 | 0.95 | 0.87 | 0.79

CC[n+]1ccn(C)c1.O=S(=O)([O-])C(F)(F)C(F)F + CCCC[n+]1ccc(C)cc1.O=S(=O)([N-]S(=O)(=O)C(F)(F)F)C(F)(F)F
100 kPa
Conditions | viscosity [mPa·s]
293.15 K, x2 = 0.2211 | 111.1
293.15 K, x2 = 0.3324 | 106.5
293.15 K, x2 = 0.4432 | 101
293.15 K, x2 = 0.774 | 84.5
303.15 K, x2 = 0.3324 | 66.1
303.15 K, x2 = 0.9517 | 47.6
313.15 K, x2 = 0.0504 | 47.7
313.15 K, x2 = 0.112 | 47
313.15 K, x2 = 0.4432 | 41.7
313.15 K, x2 = 0.6631 | 37.5
323.15 K, x2 = 0.4432 | 29.2
333.15 K, x2 = 0.4432 | 21.5
333.15 K, x2 = 0.5529 | 20.3
333.15 K, x2 = 0.6631 | 19.5
343.15 K, x2 = 0.0504 | 18.2
353.15 K, x2 = 0.774 | 10.9
353.15 K, x2 = 0.8828 | 10.3
